Source: patent US9314485B2, “Use of PI3K M-TOR and AKT inhibitors to induce FOXP3 expression and generate regulatory T cells” (Medical Research Council, priority 2006, dated 2016)
“Also recorded” adds a separate entry of the source.

Assays:
Type in all cases: cell-based, mouse
Smad2 = Smad2 phosphorylation western blot; settings: serum free medium, TGFβ 1 ng/ml 90 minutes, inhibitors 90 minutes or 8 hours
Source text: TGFβ is known as a powerful inducer of Foxp3 expression in conventional CD4 T cells in vitro and we therefore asked whether TGFβ mediates the induction of Foxp3 by TCR signal deprivation of newly activated T cells and PI3-K/mTOR inhibitors. Since cell culture medium supplemented with FCS contains TGFβ, we carried out the experiments described in this section in serum free lymphocyte culture medium (AIM-V, Invitrogen). […] The binding of TGFβ binding to ALK5 and TGFβ receptor II (TGFβRII) results in the phosphorylation of receptor-associated Smad2 and -3, which subsequently associate with co-Smads, translocate to the nucleus and act as transcriptional regulators. The phosphorylation of Smad proteins therefore provides a sensitive indicator of TGFβ signaling. Naive LN T cells were activated for 18 hours in serum free medium and then exposed to TGFβ (1 ng/ml) […], TCR signal deprivation, or TCR signal deprivation plus rapamycin and Ly294002. […] The blot was subsequently probed with anti Smad2/3 as a loading control.

[1] = test system: naive CD62LhiCD4+CD25− LN T cells; assay: Foxp3 induction in newly activated naive CD4 T cells (intracellular staining)
Akt = assay: pAkt (S473) immunoblot in activated CD4 T cells; settings: 18 h activated T cells
Experimental: To monitor the activity of the PI3K/mTOR axis in newly activated CD4 T cells we analysed phosphorylation of S6 ribosomal protein (pS6), a target of the mTOR-regulated p70 S6 kinase S6K1. TCR/CD28 signaling (but not anti-CD28 alone) induced high levels of pS6 (FIG. 10a). The maintenance of mTOR activity in 18 hour activated T cells required continued TCR signaling, since S6 phosphorylation declined when TCR signals were withdrawn (FIG. 10b). […] The serine/threonine protein kinase Akt/PKB is rapidly phosphorylated in response to signaling through TCR/CD28 but, in contrast to pS6, pAkt (S473) was no longer detected 18 h after initiation of TCR/CD28 signaling (FIG. 10c). […] Increased Akt phosphorylation in response to TCR signal deprivation and rapamycin treatment is incompatible with a traditional linear signaling pathway (FIG. 10d) but consistent with a network model in which Akt activity is controlled both by PDK1 and by mTORC2. In this model, mTORC2 (mTOR/rictor/Sin 1) is under negative feedback control of mTORC1 (mTOR/raptor) via S6K1, which phosphorylates and inhibits IRS1 (insulin receptor substrate 1) and reduces Akt activation via PI3K, PDK1 and mTORC2 (FIG. 10e). Applied to our data, withdrawal of TCR signaling lowers mTORC1 and S6K1 activity (FIG. 10b), which reduces feedback inhibition of mTORC2 and explains the observed increase in pAkt (S473) (FIG. 10c). […]

Substance: TGFβ
- phosphorylation of Smad2 (pSmad2 S465/467) (Smad2): readily detectable
- phosphorylation of Smad2 (pSmad2 S465/467) (Smad2; listed as TGF): strong phosphorylation of Smad2
- percentage of cells expressing Foxp3 ([1]; added 18 hours after activation with TCR signal deprivation, read within 24-48 hours): 46.0±15.1%
- % Foxp3+ cells, activation with anti-TCR only ([1]; no costimulation, average of two experiments): 7%
- Foxp3 expression in control cultures, TCR signal deprived cultures subtracted ([1]; serum free AIM-V medium, without anti TGFβ and SB431542, 24-48 hours / 2 days): 22.3±7.0%
- % Foxp3+ cells, activation with anti-TCR + anti-CD28 ([1]; with costimulation, average of two experiments): 46%
- pAkt (S473) (Akt): reappeared; also recorded: increased pAkt S473
